Results from patent US9296741B2, “Bromodomain inhibitors” (priority 2012, dated 2016).

Experiments:
[1] = Rat liver microsome stability assay; type: in vitro ADME; conditions: rat liver microsomes (male Sprague-Dawley), 0.5 μM test compound, 0.25 mg/mL microsomal protein, pH 7.4, 37° C.; read-out: Stability in rat liver microsomes (t1/2 in minutes)
[2] = Mouse liver microsome stability assay; type: in vitro ADME; conditions: male, CD1, mouse, microsomes, pH 7.4
[3] = system: breast cancer cell line MX-1; assay: MX-1 cell line proliferation assay; type: cell-based, human; conditions: Homo sapiens, MX1, 72 h; MX-1 cells, 3-day proliferation, Cell Titer Glo; read-out: Cellular proliferation: EC50
[4] = system: LPS induced IL-6 production; assay: LPS (lipopolysaccharide) induced IL-6 production mouse assay; type: in vivo; conditions: Mus musculus, read-out: Inhibition of LPS induced IL-6 production in Mice, % inhibition at 3 mg/kg; 3 mg/kg oral, 1 h before LPS; serum IL-6 2 h after LPS
[5] = Human liver microsome stability assay; type: in vitro ADME; conditions: both sexes, human, microsomes, pH 7.4
[6] = target: human BRD4 first bromodomain (BDI_K57-E168) (Homo sapiens (Human), UniProt O60885); assay: TR-FRET bromodomain binding assay, BRD4 first bromodomain
[7] = target: human BRD4 second bromodomain (BDII_E352-M457) (Homo sapiens (Human), UniProt O60885); assay: TR-FRET bromodomain binding assay, BRD4 second bromodomain

half-life at 0.5 μM [1] [min]	half-life at 0.5 μM [2] [min]	EC50 [3] [nM]	half-life at 0.5 μM [5] [min]	Ki [6] [nM]	Ki [7] [nM]	SMILES	inhibition in vivo at 3 mg/kg [4] [%]
81	68	82.9	> 120	–	–	CCS(=O)(=O)c1ccc(OCC2CC2)c(-c2nn(C)c(=O)c3[nH]ccc23)c1 [Example 204, 4-[2-(cyclopropylmethoxy)-5-(ethylsulfonyl)phenyl]-6-methyl-1,6-dihydro-7H-pyrrolo[2,3-d]pyridazin-7-one]	35
> 120	> 120	36.7	104	–	–	CNS(=O)(=O)c1cnc(NCC2CC2)c(-c2cn(C)c(=O)c3[nH]ccc23)c1 [Example 210, 6-[(cyclopropylmethyl)amino]-N-methyl-5-(6-methyl-7-oxo-6,7-dihydro-1H-pyrrolo[2,3-c]pyridin-4-yl)pyridine-3-sulfonamide]	78
53	56	97.5	52	–	–	CNS(=O)(=O)c1cnc(Oc2ccc(F)cc2F)c(-c2cn(C)c(=O)c3[nH]ccc23)c1 [Example 246, 6-(2,4-difluorophenoxy)-N-methyl-5-(6-methyl-7-oxo-6,7-dihydro-1H-pyrrolo[2,3-c]pyridin-4-yl)pyridine-3-sulfonamide]	71
> 120	> 120	14.4	> 120	–	–	Cn1cc(-c2cc(S(N)(=O)=O)ccc2OCC2CC2)c2cc[nH]c2c1=O [Example 249, 4-(cyclopropylmethoxy)-3-(6-methyl-7-oxo-6,7-dihydro-1H-pyrrolo[2,3-c]pyridin-4-yl)benzenesulfonamide]	59
116	29	19.5	> 120	–	–	Cn1cc(-c2cc(CS(C)(=O)=O)ccc2Oc2ccc(F)cc2F)c2cc[nH]c2c1=O [Example 287, 4-{2-(2,4-difluorophenoxy)-5-[(methylsulfonyl)methyl]phenyl}-6-methyl-1,6-dihydro-7H-pyrrolo[2,3-c]pyridin-7-one]	73
2	25	1000	> 120	157	422	Cn1cc(-c2cc(-c3ccc(F)nc3)ccc2OCC2CC2)c2cc[nH]c2c1=O [Example 348, 4-[2-(cyclopropylmethoxy)-5-(6-fluoropyridin-3-yl)phenyl]-6-methyl-1,6-dihydro-7H-pyrrolo[2,3-c]pyridin-7-one]	–
39	36	32.1	> 120	6.6	3.1	CCS(=O)(=O)Nc1ccc(Oc2ccc(F)cc2F)c(-c2cn(C)c(=O)c3[nH]cc(C=O)c23)c1 [Example 349, N-[4-(2,4-difluorophenoxy)-3-(3-formyl-6-methyl-7-oxo-6,7-dihydro-1H-pyrrolo[2,3-c]pyridin-4-yl)phenyl]ethanesulfonamide]	–
66	30	1100	76	223	153	CCS(=O)(=O)Nc1ccc(Oc2ccc(F)cc2F)c(-c2cn(C)c(=O)c3[nH]cc(CN4CCN(C)CC4)c23)c1 [Example 351, N-[4-(2,4-difluorophenoxy)-3-{6-methyl-3-[(4-methylpiperazin-1-yl)methyl]-7-oxo-6,7-dihydro-1H-pyrrolo[2,3-c]pyridin-4-yl}phenyl]ethanesulfonamide]	–
8	10	786	40	158	256	Cn1cc(-c2cc(-c3cccc(C#N)c3)ccc2OCC2CC2)c2cc[nH]c2c1=O [Example 353, 4′-(cyclopropylmethoxy)-3′-(6-methyl-7-oxo-6,7-dihydro-1H-pyrrolo[2,3-c]pyridin-4-yl)biphenyl-3-carbonitrile]	–
41	24	95.4	23	66	12.9	Cn1cc(-c2cc(S(=O)(=O)N3CCC(O)CC3)ccc2OCC2CC2)c2cc[nH]c2c1=O [Example 354, 4-{2-(cyclopropylmethoxy)-5-[(4-hydroxypiperidin-1-yl)sulfonyl]phenyl}-6-methyl-1,6-dihydro-7H-pyrrolo[2,3-c]pyridin-7-one]	–

The remaining lines, values behind:

SMILES	half-life at 0.5 μM [1] [min]	half-life at 0.5 μM [2] [min]	EC50 [3] [nM]	half-life at 0.5 μM [5] [min]	Ki [6] [nM]	Ki [7] [nM]	inhibition in vivo at 3 mg/kg [4] [%]
Cn1cc(-c2cc(NS(C)(=O)=O)cc(F)c2Oc2ccccc2)c2cc[nH]c2c1=O [Example 24, N-[3-fluoro-5-(6-methyl-7-oxo-6,7-dihydro-1H-pyrrolo[2,3-c]pyridin-4-yl)-4-phenoxyphenyl]methanesulfonamide]	5	55	12.6	29	–	–	58
Cn1cc(-c2cc(NS(C)(=O)=O)ccc2Oc2ccc(F)cc2)c2cc[nH]c2c1=O [Example 26, N-[4-(4-fluorophenoxy)-3-(6-methyl-7-oxo-6,7-dihydro-1H-pyrrolo[2,3-c]pyridin-4-yl)phenyl]methanesulfonamide]	–	–	17.1	–	2.1	3.3	60
Cn1cc(-c2cc(NS(C)(=O)=O)cc(Cl)c2Oc2ccccc2)c2cc[nH]c2c1=O [Example 28, N-[3-chloro-5-(6-methyl-7-oxo-6,7-dihydro-1H-pyrrolo[2,3-c]pyridin-4-yl)-4-phenoxyphenyl]methanesulfonamide]	9	–	23.9	21	–	–	52
Cn1cc(-c2cc(S(N)(=O)=O)cnc2OC2CCOC2)c2cc[nH]c2c1=O (stereo not drawn) [Example 86, 5-(6-methyl-7-oxo-6,7-dihydro-1H-pyrrolo[2,3-c]pyridin-4-yl)-6-(tetrahydrofuran-3-yloxy)pyridine-3-sulfonamide]	> 120	43	182	> 120	–	–	55
CNS(=O)(=O)c1cnc(OC2CCOC2)c(-c2cn(C)c(=O)c3[nH]ccc23)c1 (stereo not drawn) [Example 87, N-methyl-5-(6-methyl-7-oxo-6,7-dihydro-1H-pyrrolo[2,3-c]pyridin-4-yl)-6-(tetrahydrofuran-3-yloxy)pyridine-3-sulfonamide]	23	–	53.4	> 120	–	–	57
Cn1cc(-c2cc(S(C)(=O)=O)ccc2Oc2ccccc2F)c2cc[nH]c2c1=O [Example 149, 4-[2-(2-fluorophenoxy)-5-(methylsulfonyl)phenyl]-6-methyl-1,6-dihydro-7H-pyrrolo[2,3-c]pyridin-7-one]	–	–	29.7	–	11.5	3	69
Cn1cc(-c2cc(S(C)(=O)=O)ccc2Oc2cccc(F)c2)c2cc[nH]c2c1=O [Example 150, 4-[2-(3-fluorophenoxy)-5-(methylsulfonyl)phenyl]-6-methyl-1,6-dihydro-7H-pyrrolo[2,3-c]pyridin-7-one]	–	–	66.5	–	9.7	4.2	54
Cn1cc(-c2cc(S(C)(=O)=O)ccc2Oc2ccc(F)cc2)c2cc[nH]c2c1=O [Example 151, 4-[2-(4-fluorophenoxy)-5-(methylsulfonyl)phenyl]-6-methyl-1,6-dihydro-7H-pyrrolo[2,3-c]pyridin-7-one]	–	–	54.9	–	10.7	8.1	66
CCS(=O)(=O)Nc1ccc(Oc2ccc(F)cc2F)c(-c2nn(C)c(=O)c3[nH]ccc23)c1 [Example 160, N-[4-(2,4-difluorophenoxy)-3-(6-methyl-7-oxo-6,7-dihydro-1H-pyrrolo[2,3-d]pyridazin-4-yl)phenyl]ethanesulfonamide]	119	21	119	67	–	–	51
Cn1cc(-c2cc(S(C)(=O)=O)ccc2NC2CCOC2)c2cc[nH]c2c1=O (stereo not drawn) [Example 167, 6-methyl-4-[5-(methylsulfonyl)-2-(tetrahydrofuran-3-ylamino)phenyl]-1,6-dihydro-7H-pyrrolo[2,3-c]pyridin-7-one]	–	–	43	–	6.5	12.2	64
CCS(=O)(=O)c1ccc(O[C@H]2CC[C@@H](O)CC2)c(-c2cn(C)c(=O)c3[nH]ccc23)c1 [Example 202, 4-{5-(ethylsulfonyl)-2-[(cis-4-hydroxycyclohexyl)oxy]phenyl}-6-methyl-1,6-dihydro-7H-pyrrolo[2,3-c]pyridin-7-one]	> 120	–	22.8	–	1.7	1.4	68
CCS(=O)(=O)c1ccc(O[C@H]2CC[C@H](O)CC2)c(-c2cn(C)c(=O)c3[nH]ccc23)c1 [Example 203, 4-{5-(ethylsulfonyl)-2-[(trans-4-hydroxycyclohexyl)oxy]phenyl}-6-methyl-1,6-dihydro-7H-pyrrolo[2,3-c]pyridine-7-one]	> 120	–	4.7	–	0.69	0.75	78
